Target: human MAP4K4 kinase domain (Homo sapiens (Human), UniProt O95819)
Experiment: MAP4K4 kinase activity, CisBio HTRF Transcreener ADP assay
Assay type: biochemical
Conditions: ATP at Km (10 μM), 0.5 nM kinase domain, 2 h; read-out: MAP4K4
Description: Compounds of the present invention were screened for their inhibitory activity against MAP4K4, versus selected off-target hits found with early members of this chemical series. MAP4K4 kinase activity was monitored using the CisBio HTRF Transcreener ADP assay, acompetitive immunoassay with a reproducible Z′>0.6. In the detection step, endogenous ADP and d2-labeled ADP compete for binding an anti-ADP monoclonal antibody labelled with Eu^3+ cryptate. A ratiometric fluorescent read-out is used at 665 and 620 nm. […] Assays were run in Greiner low volume plates with a final reaction volume of 10 μl. The MAP4K4 inhibition data are provided in Table 33 below for selected compounds of the present invention. The data has been categorised based on the IC50 value of the compound as “A”, “B” or “C”.

Chain of human MAP4K4 kinase domain (O95819 25-289): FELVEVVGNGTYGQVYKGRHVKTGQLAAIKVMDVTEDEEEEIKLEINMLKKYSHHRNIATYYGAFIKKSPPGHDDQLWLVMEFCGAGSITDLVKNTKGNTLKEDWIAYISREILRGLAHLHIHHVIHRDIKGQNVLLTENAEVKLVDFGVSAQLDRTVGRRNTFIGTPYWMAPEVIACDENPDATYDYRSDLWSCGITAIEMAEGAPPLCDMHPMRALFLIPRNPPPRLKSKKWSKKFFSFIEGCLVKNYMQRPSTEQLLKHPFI

Compound | IC50
CC(C)(O)CN1CCN(c2ccc(-c3cn(-c4ccccc4)c4nc[nH]c(=O)c34)cc2)C1=O [Ex-37] | ≤ 100 nM
CC(C)(O)COc1ccc(-c2cn(-c3ccccc3)c3nc[nH]c(=O)c23)cc1C#N [Ex-7, 2-(2-Hydroxy-2-methylpropoxy)-5-(4-oxo-7-phenyl-4,7-dihydro-3H-pyrrolo[2,3-d]pyrimidin-5-yl)benzonitrile] | ≤ 100 nM
O=C1CCCN1c1ccc(-c2cn(-c3cccc(F)c3)c3nc[nH]c(=O)c23)cc1 [Ex-25] | ≤ 100 nM
O=c1[nH]cnc2c(-c3ccc(OCCCN4CCOCC4)cc3)cn(-c3ccccc3)c12 [Ex-84, 7-[4-(3-Morpholin-4-yl-propoxy)-phenyl]-5-phenyl-3,5-dihydro-pyrrolo[3,2-d]pyrimidin-4-one] | 100 to 1000 nM
CN(Cc1cccc(-c2cn(-c3ccccc3)c3nc[nH]c(=O)c23)c1)C(=O)OC(C)(C)C [Ex-32] | 100 to 1000 nM
CN(C)CC(=O)Nc1cccc(-c2cn(-c3ccccc3)c3nc[nH]c(=O)c23)c1 [Ex-24] | > 1000 nM
CCOC(=O)Cc1ccc(-c2cn(-c3ccccc3)c3nc[nH]c(=O)c23)cc1 [Ex-10, [4-(4-oxo-7-phenyl-4,7-dihydro-3H-pyrrolo[2,3-d]pyrimidin-5-yl)-phenyl]-acetic acid ethyl ester] | ≤ 100 nM
CN(C)CCOc1ccc(-c2cn(-c3ccccc3)c3nc[nH]c(=O)c23)cc1 [Ex-15] | ≤ 100 nM
N#Cc1cc(-c2cn(-c3ccccc3)c3nc[nH]c(=O)c23)ccc1OCC(O)CN1CCOCC1 (stereo not shown) [Ex-49] | ≤ 100 nM
N#Cc1ccc(-c2cn(-c3ccccc3)c3c(=O)[nH]cnc23)cc1 [Ex-99] | 100 to 1000 nM
O=c1[nH]cnc2c(-c3ccc(OCC(O)CO)cc3)cn(-c3ccccc3)c12 (stereo not shown) [Ex-88, 7-[4-(2,3-Dihydroxypropoxy)-phenyl]-5-phenyl-3,5-dihydropyrrolo[3,2-d]pyrimidin-4-one] | 100 to 1000 nM
NC(=O)c1ccc(-n2cc(-c3ccccc3)c3c(=O)[nH]cnc32)cc1 [Ex-6] | 100 to 1000 nM
O=C(O)c1ccc(-n2cc(-c3ccccc3)c3c(=O)[nH]cnc32)cc1 [Ex-1, 4-(4-Oxo-5-phenyl-3,4-dihydro-pyrrolo[2,3-d]pyrimidin-7-yl)-benzoic acid] | 100 to 1000 nM
O=C1COCCN1CC(O)COc1ccc(-c2cn(-c3ccccc3)c3nc[nH]c(=O)c23)cc1 (stereo not shown) [Ex-38] | ≤ 100 nM
CN1CCN(CCCOc2ccc(-c3cn(-c4ccccc4)c4nc[nH]c(=O)c34)cc2)CC1 [Ex-35] | ≤ 100 nM
COc1ccc(-c2cn(-c3ccccc3)c3nc[nH]c(=O)c23)cc1 [Ex-23] | ≤ 100 nM
CC(=O)Nc1cccc(-c2cn(-c3ccccc3)c3nc[nH]c(=O)c23)c1 [Ex-12] | 100 to 1000 nM
O=c1[nH]cnc2c(-c3ccccc3)cn(-c3ccccc3)c12 [Ex-97] | ≤ 100 nM
O=C1CCCCN1c1ccc(-c2cn(-c3ccccc3)c3nc[nH]c(=O)c23)cc1 [Ex-20] | 100 to 1000 nM
CN1CC(COc2ccc(-c3cn(-c4ccccc4)c4nc[nH]c(=O)c34)cc2)C1 [Ex-67] | 100 to 1000 nM
O=c1[nH]cnc2c1c(-c1ccc(OCCCO)cc1)cn2-c1ccccc1 [Ex-36] | ≤ 100 nM
CN(C)CCNC(=O)c1cccc(-c2cn(-c3ccccc3)c3nc[nH]c(=O)c23)c1 [Ex-21] | > 1000 nM
CCOC(=O)c1cccc(-c2cn(-c3ccccc3)c3c(=O)[nH]cnc23)c1 [Ex-96, 3-(4-Oxo-5-phenyl-4,5-dihydro-3H-pyrrolo[3,2-d]pyrimidin-7-yl)-benzoic acid ethyl ester] | > 1000 nM
O=c1[nH]cnc2c1c(-c1ccc(OCC(O)CN3CCS(=O)(=O)CC3)cc1)cn2-c1ccccc1 (stereo not shown) [Ex-51] | ≤ 100 nM

Compound | IC50
CN(C)CC(O)COc1ccc(-c2cn(-c3ccccc3)c3nc[nH]c(=O)c23)cc1 (stereo not shown) [Ex-46] | ≤ 100 nM
CC(=O)NCc1cccc(-c2cn(-c3ccccc3)c3nc[nH]c(=O)c23)c1 [Ex-71, N-[3-(4-Oxo-7-phenyl-4,7-dihydro-3H-pyrrolo[2,3-d]pyrimidin-5-yl)-benzyl]-acetamide] | 100 to 1000 nM
O=c1[nH]cnc2c(-c3ccc(OCC4CCNC4)cc3)cn(-c3ccccc3)c12 (stereo not shown) [Ex-94, 5-Phenyl-7-[4-(pyrrolidin-3-ylmethoxy)-phenyl]-3,5-dihydro-pyrrolo[3,2-d]pyrimidin-4-one] | > 1000 nM
NCC(=O)Nc1ccc(-c2cn(-c3ccccc3)c3nc[nH]c(=O)c23)cc1 [Ex-76] | ≤ 100 nM
C[C@H](O)COc1ccc(-c2cn(-c3ccccc3)c3c(=O)[nH]cnc23)cc1 [Ex-93] | > 1000 nM
O=c1[nH]cnc2c1c(-c1ccccc1Cl)cn2-c1ccccc1 [Ex-30] | 100 to 1000 nM
N#Cc1cccc(-c2cn(-c3ccccc3)c3nc[nH]c(=O)c23)c1 [Ex-8] | ≤ 100 nM
O=C(O)Cc1ccc(-c2cn(-c3ccccc3)c3nc[nH]c(=O)c23)cc1 [Ex-82, [4-(4-Oxo-7-phenyl-4,7-dihydro-3H-pyrrolo[2,3-d]pyrimidin-5-yl)-phenyl]-acetic acid] | ≤ 100 nM
O=c1[nH]cnc2c(-c3ccc(OCC(O)CN4CCCC4)cc3)cn(-c3ccccc3)c12 (stereo not shown) [Ex-91] | 100 to 1000 nM
NC(=O)Cc1ccc(-c2cn(-c3ccccc3)c3nc[nH]c(=O)c23)cc1 [Ex-83, 2-[4-(4-Oxo-7-phenyl-4,7-dihydro-3H-pyrrolo[2,3-d]pyrimidin-5-yl)-phenyl]-acetamide] | ≤ 100 nM
CN1CCN(CC(O)COc2ccc(-c3cn(-c4ccccc4)c4nc[nH]c(=O)c34)cc2)CC1 (stereo not shown) [Ex-48] | ≤ 100 nM
CNCC(=O)Nc1ccc(-c2cn(-c3ccccc3)c3nc[nH]c(=O)c23)cc1 [Ex-77] | ≤ 100 nM
CNC(=O)c1ccc(-n2cc(-c3ccccc3)c3c(=O)[nH]cnc32)cc1 [Ex-5, N-Methyl-4-(4-oxo-5-phenyl-3,4-dihydro-pyrrolo[2,3-d]pyrimidin-7-yl)-benzamide] | > 1000 nM
NCCOc1ccc(-c2cn(-c3ccccc3)c3nc[nH]c(=O)c23)cc1 [Ex-78] | ≤ 100 nM
CN1CCN(c2ccc(-c3cn(-c4ccccc4)c4nc[nH]c(=O)c34)cc2)C1=O [Ex-29] | ≤ 100 nM
O=C(Nc1ccc(-c2cn(-c3ccccc3)c3nc[nH]c(=O)c23)cc1)N1CCC(O)C1 (racemic) [compound 39] | ≤ 100 nM
CC(=O)Nc1ccc(-c2cn(-c3ccccc3)c3nc[nH]c(=O)c23)cc1 [Ex-9] | ≤ 100 nM
O=C(NCCO)c1cccc(-c2cn(-c3ccccc3)c3nc[nH]c(=O)c23)c1 [Ex-44] | > 1000 nM
COC(COc1ccc(-c2cn(-c3ccccc3)c3nc[nH]c(=O)c23)cc1)CN1CCOCC1 (stereo not shown) [Ex-28] | ≤ 100 nM
O=c1[nH]cnc2c1c(-c1ccc(Cn3ccnc3)cc1)cn2-c1ccccc1 [Ex-13] | ≤ 100 nM
O=c1[nH]cnc2c(-c3ccc(OCC(O)CN4CCOCC4)cc3)cn(-c3ccccc3)c12 (stereo not shown) [Ex-89] | 100 to 1000 nM
O=c1[nH]cnc2c1c(-c1ccccc1)cn2-c1ccc(Cn2ccnc2)cc1 [Ex-4] | > 1000 nM
CNCc1cccc(-c2cn(-c3ccccc3)c3nc[nH]c(=O)c23)c1 [Ex-79] | > 1000 nM
NCc1ccc(-c2cn(-c3ccccc3)c3nc[nH]c(=O)c23)cc1 [Ex-74, 5-(4-Aminomethyl-phenyl)-7-phenyl-3,7-dihydro-pyrrolo[2,3-d]pyrimidin-4-one] | 100 to 1000 nM

Compound | IC50
O=C(CO)Nc1ccc(-c2cn(-c3ccccc3)c3nc[nH]c(=O)c23)cc1 [Ex-14] | ≤ 100 nM
CCOC(=O)c1ccc(-c2cn(-c3ccccc3)c3c(=O)[nH]cnc23)cc1 [Ex-98] | > 1000 nM
C[C@@H](O)COc1ccc(-c2cn(-c3ccccc3)c3c(=O)[nH]cnc23)cc1 [Ex-92] | 100 to 1000 nM
CC(C)(O)COc1ccc(-c2cn(-c3ccccc3)c3c(=O)[nH]cnc23)cc1 [Ex-87] | > 1000 nM
CN(C)CCCOc1ccc(-c2cn(-c3ccccc3)c3nc[nH]c(=O)c23)cc1 [Ex-26] | ≤ 100 nM
O=c1[nH]cnc2c1c(-c1ccc(OCCO)cc1)cn2-c1ccccc1 [Ex-70] | ≤ 100 nM
N#Cc1cccc(-c2cn(-c3ccccc3)c3c(=O)[nH]cnc23)c1 [Ex-100] | 100 to 1000 nM
CN1CCN(CC(O)COc2ccc(-c3cn(-c4ccccc4)c4nc[nH]c(=O)c34)cc2)CC1=O (stereo not shown) [Ex-50] | ≤ 100 nM
N#Cc1ccc(-c2cn(-c3ccccc3)c3nc[nH]c(=O)c23)cc1 [Ex-11, 4-(4-oxo-7-phenyl-4,7-dihydro-3H-pyrrolo[2,3-d]pyrimidin-5-yl)-benzonitrile] | ≤ 100 nM
O=c1[nH]cnc2c1c(-c1ccc(OCC(O)CO)cc1)cn2-c1ccccc1 (stereo not shown) [Ex-68] | ≤ 100 nM
CNCCC(=O)Nc1ccc(-c2cn(-c3ccccc3)c3nc[nH]c(=O)c23)cc1 [Ex-81] | ≤ 100 nM
CC(C)(O)COc1ccc(-c2cn(-c3ccccc3)c3nc[nH]c(=O)c23)cc1 [Ex-64] | ≤ 100 nM
COCCOc1ccc(-c2cn(-c3cccc(F)c3)c3nc[nH]c(=O)c23)cc1 [Ex-65] | ≤ 100 nM
O=c1[nH]cnc2c1c(-c1cccc(CO)c1)cn2-c1ccccc1 [Ex-45] | ≤ 100 nM
O=c1[nH]cnc2c1c(-c1ccc(N3CCCC3)cc1)cn2-c1ccccc1 [Ex-62] | ≤ 100 nM
CN1CCC(Oc2ccc(-c3cn(-c4ccccc4)c4c(=O)[nH]cnc34)cc2)CC1 [Ex-86] | ≤ 100 nM
O=C1CCCN1c1ccc(-c2cn(-c3ccccc3)c3nc[nH]c(=O)c23)cc1 [Ex-19] | ≤ 100 nM
O=c1[nH]cnc2c1c(-c1ccc(OCC(O)CN3CCOCC3)cc1)cn2-c1cccc(F)c1 (stereo not shown) [Ex-43] | ≤ 100 nM
NCc1cccc(-c2cn(-c3ccccc3)c3nc[nH]c(=O)c23)c1 [Ex-75] | 100 to 1000 nM
CC(C)(C)OC(=O)NCCOc1ccc(-c2cn(-c3ccccc3)c3nc[nH]c(=O)c23)cc1 [Ex-63] | 100 to 1000 nM
CN1CCN(CC(=O)Nc2ccc(-c3cn(-c4ccccc4)c4nc[nH]c(=O)c34)cc2)CC1 [Ex-17] | ≤ 100 nM
O=c1[nH]cnc2c1c(-c1ccccc1F)cn2-c1ccccc1 [Ex-66] | 100 to 1000 nM

Source: patent US11795169B2, “MAP4K4 inhibitors” (IMPERIAL COLLEGE INNOVATIONS LIMITED, priority 2017, dated 2023)
